# In patent publication US11725015B2, “Macrocyclic compound and uses thereof” (President and Fellows of Harvard College, priority 2017, dated 2023):
# Key:
# [1] = test system: human breast cancer cell line HCC1954; assay: HCC1954 growth inhibition assay; format: cell-based; details: 3 days incubation, CellTiter-Glo
# Description: (§1) In this assay, the growth inhibitory activity of test compounds in a human breast cancer cell line HCC1954 was measured. HCC1954 cells were maintained in an RPMI-1640 medium modified to contain 2 mM L-glutamine, 10 mM HEPES, 1 mM sodium pyruvate, 4500 mg/L glucose, and 1500 mg/L sodium bicarbonate (ATCC 30-2001) containing 10% fetal bovine serum (FBS: Nichirei, 12D168), and penicillin and streptomycin in a 5% CO2 incubator (37° C.). To each well of a 96 well plate (Becton, Dickinson and Company, 353219), 75 μL of HCC1954 cell suspension adjusted to a concentration of 4×10^4 cells/mL with the culture medium was added, and the cells were incubated overnight in a 5% CO2 incubator (37° C.). On the next day, 25 μL of Compound (1) or Halichondrin B in three-fold dilution series suspended in the culture medium was added to each well, and the resultant was incubated for 3 days in a 5% CO2 incubator (37° C.). Then, cell viability was determined by CellTiter-Glo® Luminescent Cell Viability Assay (Promega) with EnVision 2103 Multilabel Reader (Perkin-Elmer, Wellesley, Mass.). Value of the wells containing cells without adding the test compounds was defined as 100% and the value of the wells containing no cells was defined as 0%. The concentration of the test compound necessary for inhibiting the cell growth by 50% (i.e., an IC50 value) was calculated, and shown in Table 3.
# [2] = test system: HCC1806 subcutaneous xenograft; assay: Antitumor activity against HCC1806 subcutaneous xenograft model in mice as monotherapy; format: in vivo; details: 0.18 mg/kg intravenously, Q7D×2
# Description: A human breast cancer cell line HCC1806, which had been cultured in an RPMI-1640 medium containing 10% FBS, and penicillin and streptomycin, was adjusted to a concentration of 1×10^8 cells/mL with PBS to prepare a cell suspension, and the suspension was mixed with Matrigel™ (BD Bioscience, #366237) in a ratio of 1:1 to prepare a cell suspension in a concentration of 5×10^7 cell/mL. The cell suspension was inoculated in a volume of 100 μL into a subcutaneous part of a right flank of nude mice, 5 weeks of ages (CAnN.Cg-Foxnlnu/CrlCrlj, female, Charles River Laboratories Japan, Inc.).
# On the basis of the volumes of tumors obtained on the first day of administration, the mice were grouped such that averages of the tumor volumes were substantially equal among the groups. The experiment was conducted on groups each consisting of 6 mice. Test compound was dissolved in saline and intravenously administered at 0.18 mg/kg once a week for 2 weeks (Q7D×2 schedule).
# [3] = test system: human squamous cell carcinoma of the head and neck (SCCHN) cell line FaDu; assay: FaDu growth inhibition assay; format: cell-based; details: 3 days incubation, CellTiter-Glo
# Description: as §1, with “squamous cell carcinoma of the head and neck (SCCHN)” for “breast cancer”, “FaDu” for “HCC1954”, “RPMI-1640 (Wako Pure Chemical Industries, Ltd., 187-02021)” for “RPMI-1640”, “medium” for “medium modified to contain 2 mM L-glutamine, 10 mM HEPES, 1 mM sodium pyruvate, 4500 mg/L glucose, and 1500 mg/L sodium bicarbonate (ATCC 30-2001)”, “1.” for “3.”
# Tenascin-C = assay: Effect on Tenascin-C in the FaDu subcutaneous model in mice; format: in vivo; details: Compound (1) 180 μg/kg + CTX 10 mg/kg on Day 1, five days after, compared with control tumors
# Description: A human squamous cell carcinoma of the head and neck (SCCHN) cell line FaDu, which had been cultured in an RPMI-1640 medium containing 10% FBS, and penicillin-streptomycin (culture medium), was adjusted to a concentration of 5×10^7 cells/mL with culture medium to prepare a cell suspension. The cell suspension was inoculated in a volume of 100 μL into a subcutaneous part of a right flank of nude mice, 6 weeks of ages (CAnN.Cg-Foxnlnu/CrlCrlj, female, Charles River Laboratories Japan, Inc.). Ten days after cell inoculation, the mice were grouped such that averages of the tumor volumes were substantially equal among the groups. The experiment was conducted on groups each consisting of 5 mice. Compound (1) was dissolved in DMSO and a solution was stored in the freezer before use. […] Five days after the single administration, tumor samples were collected and fixed with IHC Zinc Fixative (BD Pharmingen) at 4° C. for 24 hr. Paraffin-embedded tissues were sectioned (3 μm), mounted on positively charged slides, and air-dried. Sections were deparaffinized, conditioned and the antigens were retrieved using microwave with 1 mM EDTA at pH 6.0 for Tenascin-C. For EDA-fibronectin, the antigens retrieval procedure was not necessary. […]
smiles,measurement,setting,value
C=C1C[C@@H]2CC[C@@]34C[C@H]5O[C@H]6[C@@H](O3)[C@H]3O[C@H](CC[C@@H]3O[C@H]6C5O4)CC(=O)O[C@@H]3[C@@H](C)[C@@H]4O[C@@H]5C[C@]6(C[C@@H]7O[C@]8(C[C@H](C)[C@@H]9O[C@H](CN)[C@H](O)C[C@@H]9O8)C[C@H](C)[C@@H]7O6)O[C@@H]5C[C@@H]4O[C@H]3C[C@H]3O[C@@H](CC[C@@H]1O2)C[C@@H](C)C3=C [Compound (1)],IC50,[1],0.0668 nM
same,Tumor Regression (%),[2],90%
same,IC50,[3],0.0714 nM
same,expression level of Tenascin-C,Tenascin-C,reduced
